Measured values as given in US20080107707A1, “POLYMERIZABLE ANTIMICROBIAL COMPOSITION” (REGENTS OF THE UNIVERSITY OF COLORADO, priority 2006, published 2008).
≈ marks a conversion by molar mass, not a printed value.

Columns and labels:
[1] = test system: S. epidermidis ATCC 12228; assay: Minimum inhibitory concentration (MIC), broth dilution method; format: cell-based, Staphylococcus epidermidis
Procedure: The minimum inhibitory concentration (MIC) and minimum bactericidal concentration (MBC) of the monomer were determined by the broth dilution method. Various amounts of VPA were added to 1 mL of brain heart infusion media (BHI) (Becton, Dickinson, and Co., Sparks, Md.) along with 1×10^5 cfu of S. epidermidis ATCC 12228 (MicroBiologics, Inc., St. Cloud, Minn.) using aseptic technique. Cultures were incubated for 24 hr. at 37° C. The MIC was taken to be the lowest VPA concentration at which no turbidity was observed.

[2] = test system: S. epidermidis ATCC 12228; assay: Minimum bactericidal concentration (MBC), plating of broth dilution tubes; format: cell-based, Staphylococcus epidermidis
Procedure: The MBC is another parameter used to assess the usefulness of an antibacterial. It provides some measure of the concentration of agent required to kill bacteria, not just inhibit their growth. In this test, 10 μL of media from each tube were plated on trypticase soy agar (TSA) plates with 5% sheep blood (Becton, Dickinson, and Co., Sparks, Md.) and grown for 24 hr. at 37° C. The MBC was taken to be the lowest VPA concentration at which no colonies were observed.

Compound	MIC (lowest concentration at which no turbidity was observed) ([1]; 1×10^5 cfu in 1 mL BHI, 24 hr at 37° C, mean ±std. dev.) [µg/mL]	MIC ([1]; S. epidermidis ATCC 12228, broth dilution) [µM]	MBC (lowest concentration at which no colonies were observed) ([2]; 10 μL plated on TSA 5% sheep blood, 24 hr at 37° C, mean ±std. dev.) [µg/mL]	MBC ([2]; S. epidermidis ATCC 12228) [µM]	MBC ([2]; Staphylococcus epidermidis, ATCC12228) [µM]
vancomycin-PEG(3400)-acrylate [VPA]	11.5 ± 0.8	2.35 ± 0.15	15 ± 1	3.0 ± 0.2	
CN[C@H](CC(C)C)C(=O)N[C@H]1C(=O)N[C@@H](CC(N)=O)C(=O)N[C@H]2C(=O)N[C@H]3C(=O)N[C@H](C(=O)N[C@H](C(=O)O)c4cc(O)cc(O)c4-c4cc3ccc4O)[C@H](O)c3ccc(c(Cl)c3)Oc3cc2cc(c3O[C@@H]2O[C@H](CO)[C@@H](O)[C@H](O)[C@H]2O[C@H]2C[C@](C)(N)[C@H](O)[C@H](C)O2)Oc2ccc(cc2Cl)[C@H]1O [vancomycin, reference compound]					1.12 ± 0.04 (≈ 1.62 µg/mL)
